Molecular target: T1, Mac-1 (Homo sapiens, UniProt P05107+P11215)
T1 construct: isolate neutrophils from ethylenediaminetetraacetic acid (EDTA)-treated venous blood obtained from healthy human volunteers; endogenous in cells; host or cells: human neutrophils (PMN) isolated from venous blood of healthy volunteers
Assay: Human neutrophil Mac-1 adhesion assay (fMLP-stimulated PMN adhesion to KLH-coated plates)
Format: cell-based
Conditions: human neutrophils, read-out: percent drug inhibition vs. stimulus control
Procedure: Protocol for Human Neutrophil Mac-1 Adhesion Assay
Namely, we utilized Ferrante and Thong's methodology to isolate neutrophils from ethylenediaminetetraacetic acid (EDTA)-treated venous blood obtained from healthy human volunteers. Keyhole limpet hemocyanin (KLH) coated microtiter plates were prepared as follows:
All pipetting was automated using the Cetus Pro/Pette (Perkin-Elmer; division of Applied Biosystems, Foster, Calif.). KLH, Megathura crenulata; Calbiochem-Novabiochem, La Jolla, Calif., was prepared at a concentration of 0.5 mg/mL in Dulbecco's PBS phosphate buffered saline (PBS) with Ca^++, pH 7.2 (DPBS).
Microtiter plates are prewashed with 50% EtOH for 1 hour at 37° C., then drained and blotted to dryness. Then 0.3 mL KLH solution was pipetted into each well of the 96 well microtiter plate, covered and incubated overnight at 37° C. […]
a. mean unstimulated cell control OD is determined and subtracted from all other values b. mean net stimulated, e.g., FMLP, control values are determined c. mean drug values are determined and percent drug inhibition vs. stimulus control are calculated as follows: [formula] d. IC50 determinations, plotting logdose vs. percent inhibition, are determined by linear regression analysis using the least squares method.

T1 sequence (P05107 23-769, other chains not shown): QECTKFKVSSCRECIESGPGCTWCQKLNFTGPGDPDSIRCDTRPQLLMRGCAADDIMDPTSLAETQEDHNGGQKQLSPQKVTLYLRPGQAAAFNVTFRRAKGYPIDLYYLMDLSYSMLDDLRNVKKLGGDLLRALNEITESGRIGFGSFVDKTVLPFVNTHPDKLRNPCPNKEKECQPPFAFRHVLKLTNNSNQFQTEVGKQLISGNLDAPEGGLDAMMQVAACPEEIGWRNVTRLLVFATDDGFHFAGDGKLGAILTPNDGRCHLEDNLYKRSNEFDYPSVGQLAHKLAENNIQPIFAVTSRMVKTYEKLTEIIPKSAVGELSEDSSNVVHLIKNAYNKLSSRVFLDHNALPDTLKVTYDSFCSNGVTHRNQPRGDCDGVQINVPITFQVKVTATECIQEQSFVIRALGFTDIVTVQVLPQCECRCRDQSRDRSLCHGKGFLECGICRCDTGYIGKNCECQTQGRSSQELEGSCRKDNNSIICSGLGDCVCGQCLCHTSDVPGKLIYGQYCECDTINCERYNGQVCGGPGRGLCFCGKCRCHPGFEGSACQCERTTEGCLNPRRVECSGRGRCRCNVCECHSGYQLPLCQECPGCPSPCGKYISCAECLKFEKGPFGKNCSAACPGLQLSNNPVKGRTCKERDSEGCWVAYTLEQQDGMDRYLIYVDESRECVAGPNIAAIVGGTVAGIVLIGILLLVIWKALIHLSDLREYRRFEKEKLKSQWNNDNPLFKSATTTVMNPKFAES

Structure (SMILES)	inhibition at 33 µM [%]
CC(C)Oc1c(C(=O)Nc2nnn[nH]2)sc2c1CCC2 [Example 2, 3-Isopropoxy-5,6-dihydro-4H-cyclopenta[b]thiophene-2-carboxylic acid (1H-tetrazol-5-yl)-amide]	27
CC(C)Oc1c(C(=O)Nc2nnn[nH]2)sc2c1CS(=O)(=O)CC2 [Example 6, 3-Isopropoxy-5,5-dioxo-6,7-dihydro-4H-thieno[3,2-c]thiopyran-2-carboxylic acid (1H-tetrazol-5-yl) amide]	38

— US5464855A, “Thiophene-2-carboxamidotetrazoles and pharmaceutical use thereof” (Warner-Lambert Company, priority 1994, dated 1995)
